Test results as given in US6953800B2, “Use of selective antagonists of the α1B-adrenergic receptor for improvement of sexual dysfunction” (Recordati S.A. Chemical, priority 1999, dated 2005).
pKi: −log10 of the molar value. Where “and” joins values, the source holds several entries; their conditions need not be identical. Equal values may be shown once.

Key:
bovine α1a-adrenoceptor = molecular target: T1, bovine α1a-adrenoceptor (Bos taurus, UniProt P18130); experiment: [3H]Prazosin binding, bovine α1a-adrenoceptor in COS-7 cell membranes; conditions: bovine α1a, COS-7 membranes; read-out: Affinity (Ki) α1a, animal cloned receptors
T1 construct: expressed in transfected cells; host or cells: COS-7 cells (transient), membranes
T1 sequence (P18130 1-466): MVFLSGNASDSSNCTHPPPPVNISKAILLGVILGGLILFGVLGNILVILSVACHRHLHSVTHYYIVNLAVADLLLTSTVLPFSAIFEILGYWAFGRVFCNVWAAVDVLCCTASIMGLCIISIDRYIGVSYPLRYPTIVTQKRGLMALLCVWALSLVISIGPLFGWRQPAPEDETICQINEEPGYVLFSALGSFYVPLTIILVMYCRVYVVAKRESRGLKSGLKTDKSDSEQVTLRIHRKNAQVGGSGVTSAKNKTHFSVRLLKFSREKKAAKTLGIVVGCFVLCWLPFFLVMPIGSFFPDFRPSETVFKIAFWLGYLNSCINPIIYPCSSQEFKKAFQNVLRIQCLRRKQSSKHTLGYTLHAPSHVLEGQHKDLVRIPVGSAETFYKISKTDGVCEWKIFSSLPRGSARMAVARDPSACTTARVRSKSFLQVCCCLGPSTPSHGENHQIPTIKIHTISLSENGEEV
Procedure: (§1) The incubation was stopped by addition of ice-cold Tris buffer and rapid filtration through 0.2% polyethyleneimine pretreated Whatman GF/B or Schleicher & Schuell GF52 filters.
(§2) Data are expressed as mean Ki. All patents and other references cited herein are incorporated by reference in their entirety.

hamster α1b-adrenoceptor = molecular target: T2, hamster α1b-adrenoceptor (Mesocricetus auratus, UniProt P18841); experiment: [3H]Prazosin binding, hamster α1b-adrenoceptor in COS-7 cell membranes; conditions: COS-7 membranes, read-out: Affinity (Ki) α1b, animal cloned receptors
T2 construct: expressed in transfected cells; host or cells: COS-7 cells (transient), membranes
T2 sequence (P18841 1-515): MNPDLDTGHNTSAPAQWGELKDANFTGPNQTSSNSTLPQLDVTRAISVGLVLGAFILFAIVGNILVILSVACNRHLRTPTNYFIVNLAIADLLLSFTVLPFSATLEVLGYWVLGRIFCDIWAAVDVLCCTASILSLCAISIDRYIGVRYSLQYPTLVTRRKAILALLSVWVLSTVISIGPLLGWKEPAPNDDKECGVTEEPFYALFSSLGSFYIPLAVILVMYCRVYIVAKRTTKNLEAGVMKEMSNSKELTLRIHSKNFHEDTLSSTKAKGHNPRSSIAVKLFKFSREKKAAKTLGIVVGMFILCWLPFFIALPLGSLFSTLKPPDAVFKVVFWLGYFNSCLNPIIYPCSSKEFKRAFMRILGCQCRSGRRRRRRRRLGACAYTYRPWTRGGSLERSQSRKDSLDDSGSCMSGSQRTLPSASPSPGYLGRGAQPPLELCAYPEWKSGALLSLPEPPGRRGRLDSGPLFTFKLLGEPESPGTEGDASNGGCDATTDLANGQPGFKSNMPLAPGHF
Procedure: as §1, §2

rat α1d-adrenoceptor = molecular target: T3, rat α1d-adrenoceptor (Rattus norvegicus, UniProt P23944); experiment: [3H]Prazosin binding, rat α1d-adrenoceptor in COS-7 cell membranes; conditions: COS-7 membranes, read-out: Affinity (Ki) α1d, animal cloned receptors
T3 construct: expressed in transfected cells; host or cells: COS-7 cells (transient), membranes
T3 sequence (P23944 1-561): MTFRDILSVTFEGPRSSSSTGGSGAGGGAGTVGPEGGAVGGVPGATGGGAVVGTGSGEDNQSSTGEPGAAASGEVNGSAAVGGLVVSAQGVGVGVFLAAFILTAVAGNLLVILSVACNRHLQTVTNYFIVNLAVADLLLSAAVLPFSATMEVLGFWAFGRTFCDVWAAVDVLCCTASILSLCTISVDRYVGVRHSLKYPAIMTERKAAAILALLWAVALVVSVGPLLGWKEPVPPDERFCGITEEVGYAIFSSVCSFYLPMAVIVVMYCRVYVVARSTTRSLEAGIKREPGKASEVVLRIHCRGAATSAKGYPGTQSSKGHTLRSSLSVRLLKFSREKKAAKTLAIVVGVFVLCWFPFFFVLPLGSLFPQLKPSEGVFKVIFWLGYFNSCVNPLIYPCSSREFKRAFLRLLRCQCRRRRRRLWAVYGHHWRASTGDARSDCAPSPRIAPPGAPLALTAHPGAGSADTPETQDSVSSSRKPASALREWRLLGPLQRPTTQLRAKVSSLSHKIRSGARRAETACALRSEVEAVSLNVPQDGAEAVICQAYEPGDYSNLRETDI
Procedure: as §1, §2

anaesthetised rats = experiment: Intracavernous and blood pressure recording in rats; assay type: in vivo, rat
Procedure: Rats were anaesthetised by an intraperitoneal injection of urethane (1.5 g/kg in sterile saline) and placed on an homeothermic blanket. Their temperature was maintained at 37° C. Rats were tracheotomized to facilitate spontaneous breathing and to prevent aspiration of saliva. A catheter filled with heparinized saline (25 IU/ml) was placed into the carotid to record mean blood pressure (BP, mmHg). The penis was desheathed and the corpora cavernosa were exposed. A 25-gauge stainless-steel needle was inserted into one corpus cavernosum to record intracavernous pressure (ICP in mmHg). […] Pressure catheters were connected to pressure transducers (Model 750, Elcomatic Ltd, Glasgow, UK).
Following a resting period of 10 minutes, the compound solvent was delivered intracavernously (50 μl/injection). Then, increasing doses of one compound were injected every ten minutes by the same route. Five injections (one solvent plus four cumulative doses) were performed in each rat, and five rats were used for the study of one compound. For each injection and for each compound, mean BP averaged over the ten minutes following the injection was measured. The maximal ICP value reached during the ten-minute period following an injection was also recorded. In these experiments, all the compounds tested were dissolved and diluted in propylene glycol-Sorensen solvent.

anaesthetised dogs = experiment: Intracavernous and blood pressure recording in dogs
Procedure: Male beagle dogs were anaesthetised with pentobarbital sodium (i.v. Nembutal, 35 mg/kg for induction and 4 mg/kg/h for maintenance) and intubated with an endotracheal cuffed tube to facilitate free ventilation. A collateral of the left femoral vein was cannulated with a PE catheter for infusion of the anaesthetic. Systemic BP was monitored via a Mikro-tip 6F (Millar Instruments) pressure transducer introduced into the aortic arch through the right common carotid artery. ICP was measured by means of a 20-gauge needle placed into the left or right corpus cavernosum and the same needle was used for intracavernous injection of the drugs. The needle was attached to a catheter filled with heparinized saline (25 IU/mL). […] The compounds to be tested were injected intracavernously in a volume of 0.5 ml and, after each injection, the needle was flushed with 0.5 ml of saline. The vehicles for compound dissolution were tested before the first dose of each drug. The compounds were administered in a cumulative way, with a 30-minute interval between doses. ICP (mmHg) was measured at the peak effect after the administration of the compounds. The duration of tumescence (DT, min) was measured from the beginning of the rise of ICP over its basal value up to the return to baseline. The systolic blood pressure and diastolic blood pressure (mmHg) were measured at the peak effect after the administration of compounds, in order to evaluate the effects of the compounds on BP independently from the effects on ICP. Moreover, the systolic blood pressure was measured at the time of maximal ICP value after intracavernous injection, to evaluate the ICP/BP ratios. […] The data were reported as mean ±s.e. of the mean, or percent variation (±s.e.) of the basal values.

pKi (bovine α1a-adrenoceptor): 8.12
pKi (hamster α1b-adrenoceptor): 9.35
pKi (rat α1d-adrenoceptor): 7.99
SMILES: COc1cc2nc(N3CCN(C(=O)COc4c(OC)cccc4C(C)C)CC3)nc(N)c2cc1OC.Cl [Compound A, 4-Amino-6,7-dimethoxy-2-[4-[(2-isopropyl-6-methoxyphenoxy)acetyl]-1-piperazinyl]quinazoline hydrochloride]
BP (anaesthetised rats; 10 μg/kg intracavernous): 91.3 ± 9.4 mmHg
ICP (anaesthetised rats; 10 μg/kg intracavernous): 36.8 ± 8.7 mmHg
BP (anaesthetised rats; 30 μg/kg intracavernous): 82.7 ± 11.0 mmHg
ICP (anaesthetised rats; 30 μg/kg intracavernous): 37.6 ± 10.1 mmHg
BP (anaesthetised rats; 100 μg/kg intracavernous): 74.8 ± 9.3 mmHg
ICP (anaesthetised rats; 100 μg/kg intracavernous): 38.7 ± 12.3 mmHg
BP (anaesthetised rats; 300 μg/kg intracavernous): 72.5 ± 5.6 mmHg
ICP (anaesthetised rats; 300 μg/kg intracavernous, hydrochloride): 50.6 mmHg and 50.6 ± 13.7 mmHg
effect on ICP (in words) (anaesthetised rats; intracavernous injection): dose-dependently increased ICP
decrease of blood pressure accompanying the ICP/BP increase (FIG. 1) (anaesthetised rats; intracavernous, 10-300 μg): ≤ 20%
decrease of BP (anaesthetised rats; intracavernous, over the dose range up to 300 μg/kg): about 30%
DBP (anaesthetised dogs; 3 μg/kg intracavernous): 116.0 ± 5.9 mmHg
DT (duration of tumescence) (anaesthetised dogs; 3 μg/kg intracavernous): 1.2 ± 0.2 min
ICP (anaesthetised dogs; 3 μg/kg intracavernous): 26.7 ± 8.7 mmHg
SBP (anaesthetised dogs; 3 μg/kg intracavernous): 155.3 ± 5.5 mmHg
SBPICP (SBP at the time of maximal ICP value) (anaesthetised dogs; 3 μg/kg intracavernous): 156.7 ± 6.8 mmHg
increase of ICP in comparison with basal ICP values (anaesthetised dogs; 3 μg/kg intracavernous): 12 mmHg
DBP (anaesthetised dogs; 10 μg/kg intracavernous): 120.0 ± 5.9 mmHg
DT (duration of tumescence) (anaesthetised dogs; 10 μg/kg intracavernous): 15.0 ± 8.4 min
ICP (anaesthetised dogs; 10 μg/kg intracavernous): 75.0 ± 32.4 mmHg
SBP (anaesthetised dogs; 10 μg/kg intracavernous): 157.5 ± 6.6 mmHg
SBPICP (SBP at the time of maximal ICP value) (anaesthetised dogs; 10 μg/kg intracavernous): 158.5 ± 7.4 mmHg
DBP (anaesthetised dogs; 30 μg/kg intracavernous): 117.5 ± 6.5 mmHg
DT (duration of tumescence) (anaesthetised dogs; 30 μg/kg intracavernous): 8.3 ± 3.2 min
ICP (anaesthetised dogs; 30 μg/kg intracavernous): 91.5 ± 26.9 mmHg
SBP (anaesthetised dogs; 30 μg/kg intracavernous): 154.0 ± 6.6 mmHg
SBPICP (SBP at the time of maximal ICP value) (anaesthetised dogs; 30 μg/kg intracavernous): 156.5 ± 5.9 mmHg
DBP (anaesthetised dogs; 100 μg/kg intracavernous): 113.0 ± 7.3 mmHg
DT (duration of tumescence) (anaesthetised dogs; 100 μg/kg intracavernous): 13.7 ± 5.6 min
ICP (anaesthetised dogs; 100 μg/kg intracavernous): 95.0 ± 23.3 mmHg
SBP (anaesthetised dogs; 100 μg/kg intracavernous): 147.5 ± 7.6 mmHg
SBPICP (SBP at the time of maximal ICP value) (anaesthetised dogs; 100 μg/kg intracavernous): 148.5 ± 6.0 mmHg
DBP (anaesthetised dogs; 300 μg/kg intracavernous): 107.5 ± 7.4 mmHg
ICP (anaesthetised dogs; 300 μg/kg intracavernous): 111.0 ± 10.9 mmHg
SBP (anaesthetised dogs; 300 μg/kg intracavernous): 140.0 ± 7.4 mmHg
SBPICP (SBP at the time of maximal ICP value) (anaesthetised dogs; 300 μg/kg intracavernous): 142.0 ± 6.5 mmHg
increase of ICP in comparison with basal ICP values (anaesthetised dogs; 300 μg/kg intracavernous): 96.5 mmHg
duration of action compared with reference compounds (anaesthetised dogs; Compound B at the highest dose tested): higher than that of the reference compounds tested
hypotension computed on diastolic blood pressure (change) (anaesthetised dogs; dose-dependent over 3-300 μg/kg): −10 to −19 mmHg
decrease of blood pressure accompanying the ICP/BP increase (FIG. 2) (anaesthetised dogs; intracavernous): ≤ 20%
effect on ICP (in words) (anaesthetised dogs; intracavernous injection): dose-dependently increased ICP
